Each structure is given as a SMILES string.

One series deals with T1, hERG potassium channel (Homo sapiens, UniProt Q12809).
T1 construct: expressed in transfected cells; host or cells: HEK293
Description: hERG-transfected HEK293 cells using a Patch Express apparatus. As to conditions: bracketed value in cell = % block by vehicle. It counts as cell-based. As to the method:
Experiments were performed using HEK293 cells stably expressing the hERG potassium channel. Cells were grown at 37° C. and 5% CO2 in culture flasks in MEM Medium supplemented with 10% heat-inactivated fetal bovine serum, 1% L-Glutamine-Penicillin-Streptomycin-solution, 1% non-essential amino acids (100×), 1% sodium pyruvate (100 mM) and 0.8% Geneticin (50 mg/ml). Before use the cells were subcultured in MEM medium in the absence of 5 ml L-Glutamine-Penicillin-Streptomycin. For use in the automated patch-clamp system PatchXpress 7000A (Axon Instruments) cells were harvested to obtain cell suspension of single cells. Extracellular solution contained (mM): 150 NaCl, 4 KCl, 1 MgCl2, 1.8 CaCl2, 10 HEPES, 5 Glucose (pH 7.4 with NaOH). Pipette solution contained (mM): 120 KCl, 10 HEPES, 5 EGTA, 4 ATP-Mg2, 2 MgCl2, 0.5 CaCl2 (pH 7.2 with KOH).
Patch-clamp experiments were performed in the voltage-clamp mode and whole-cell currents were recorded with an automated patch-clamp assay utilizing the PatchXpress 7000A system (Axon Instruments). Current signals were amplified and digitized by a Multiclamp amplifier, stored and analyzed by using the PatchXpress, DataXpress software and Igor 5.0 (Wavemetrics).
The holding potential was −80 mV. The hERG current (K+-selective outward current) was determined as the maximal tail current at −40 mV after a 2 second depolarization to +60 mV. Pulse cycling rate was 15 s. Before each test pulse a short pulse (0.5 s) from the holding potential to −60 mV was given to determine (linear) leak current. After establishing whole-cell configuration and a stability period, the vehicle (aqueous DMSO control) was applied for 5 minutes followed by the test substance by increasing concentrations of 10^−7 M, 3×10^−7 M and 3×10^−6 M.
Each concentration of the test substance was applied twice. The effect of each concentration was determined after 5 min as an average current of 3 sequential voltage pulses. To determine the extent of block the residual current was compared with vehicle pre-treatment. Data are expressed as % block at the indicated concentrations in Table 4. The values between brackets refer to % block by the vehicle.

The next series deals with 5HT2B (Homo sapiens, UniProt P41595). Description: 5-HT2B antagonism, FLIPR intracellular calcium in transfected CHO-K1 cells. It counts as cell-based. The arrangement: expressed in transfected cells; host or cells: CHO-K1 (ECACC). As to conditions: for IC50: CHO-K1 cells, response to 0.1 nM serotonin, Fluo-3 FLIPR; for Kb: modified Cheng Prusoff equation from IC50, read-out: 5-HT2B antagonism KB (apparent dissociation constant). As to the method: CHO-K1 (ECACC) cells were stably transfected with human 5-HT2B receptor cDNA subcloned into pCDNA3.1 using the calcium phosphate method. Stably transfected cell lines were selected using G-418, and clonal cell lines were developed by limit dilution. Cell lines were cultured in Dulbecco's modified Eagle Medium (DMEM) containing 10% heat inactivated dialyzed foetal bovine serum (FBS), 1% penicillin-streptomycin, 1% L-glutamine and 1% non-essential amino acids.
Chain of 5HT2B (P41595 whole entry): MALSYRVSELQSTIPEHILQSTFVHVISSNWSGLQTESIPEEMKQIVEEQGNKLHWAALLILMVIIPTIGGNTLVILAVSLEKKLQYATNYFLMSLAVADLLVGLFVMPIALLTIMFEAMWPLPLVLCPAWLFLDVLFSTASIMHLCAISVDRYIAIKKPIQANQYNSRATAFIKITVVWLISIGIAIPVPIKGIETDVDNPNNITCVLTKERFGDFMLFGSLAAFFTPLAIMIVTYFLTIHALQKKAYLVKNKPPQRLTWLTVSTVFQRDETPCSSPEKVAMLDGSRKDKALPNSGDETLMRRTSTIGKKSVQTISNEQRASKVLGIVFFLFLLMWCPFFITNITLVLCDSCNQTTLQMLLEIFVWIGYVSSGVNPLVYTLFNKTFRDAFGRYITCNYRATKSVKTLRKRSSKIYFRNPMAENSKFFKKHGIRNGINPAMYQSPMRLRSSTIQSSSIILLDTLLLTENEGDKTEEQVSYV
Confluent monolayers plated into black 96 well plates with clear bottoms were loaded with 4 μM Fluo-3-AM for 90 min at 37° C. in Hanks balanced salt solution supplemented with 20 mM HEPES and 2.5 mM probenecid. After washing, the test compound was added to the cells and maximal fluorescence in response to 0.1 nM serotonin was recorded using a fluorometric imaging plate reader (FLIPR) to detect changes in intracellular calcium levels.
The maximal fluorescence recorded in the presence of the test compound was expressed as a percent of the maximal fluorescence response to the agonist serotonin (0.1 nM). […] The apparent dissociation constant (KB) was calculated using the modified Cheng Prusoff equation (KB=IC50/(1+(A/EC50A)), where A=concentration of serotonin, and EC50A=EC50 value of serotonin in this assay). (Porter et al. (1999), Br. J. Pharmacol., 128: 13-20)
On the technique in general: A change in cytosolic calcium serves as a functional read-out for many receptors and channels.

The nature of series [1]: Pharmacokinetic evaluation in the rat. As to conditions: male Sprague Dawley rat. It counts as in vivo. As to the method: For intravenous (i.v.) administration, Compound (−)-17 was dissolved in saline containing 20% (w/v) hydroxy-propyl-beta-cyclodextrin (HPbCD) at a concentration of 1 mg/mL and administered (2.5 mL/kg) to male Sprague Dawley rats (n=1) as a bolus via a saphenous vein at a dose level of 2.5 mg/kg. For oral (p.o.) administration, Compound (−)-17 was dissolved in water containing 20% (w/v) HPbCD at a concentration of 1 mg/mL and administered (10 mL/kg) to male Sprague Dawley rats (n=3) via gavage at a dose level of 10 mg/kg. Blood samples were collected via a tail vein at serial time points up to 24 h after dosing. Plasma was obtained by centrifugation and stored at −20° C. prior to analysis. Analysis was performed using liquid chromatography (LC) with tandem mass spectrometric detection (MS/MS) in positive ion mode. Compound (−)-17 was eluted from a reversed phase column with a gradient of acetonitrile and water containing 0.1% (v/v) formic acid. At the time of analysis plasma samples (50 uL) were thawed and […] with at least three volumes of acetonitrile and centrifuged. Aliquots of the supernatant were injected onto a reversed phase UPLC column and analysed via electrospray Mass Spectrometry. Calibration standards and quality controls, analysed before and after the samples, were prepared in rat plasma at the same time as the study samples. The accuracy (intra branch accuracy from independent QC samples) was between 85% and 115% of the nominal value over the entire concentration range. Non-compartmental pharmacokinetic analysis of the plasma concentration-time curves was performed using WinNonLin to provide estimates of the plasma clearance (CLp), volume of distribution at steady-state (Vss), terminal phase elimination half-life (t½) and oral bioavailability (F), the results are summarised in Table 8.

T1 sequence (Q12809 whole entry): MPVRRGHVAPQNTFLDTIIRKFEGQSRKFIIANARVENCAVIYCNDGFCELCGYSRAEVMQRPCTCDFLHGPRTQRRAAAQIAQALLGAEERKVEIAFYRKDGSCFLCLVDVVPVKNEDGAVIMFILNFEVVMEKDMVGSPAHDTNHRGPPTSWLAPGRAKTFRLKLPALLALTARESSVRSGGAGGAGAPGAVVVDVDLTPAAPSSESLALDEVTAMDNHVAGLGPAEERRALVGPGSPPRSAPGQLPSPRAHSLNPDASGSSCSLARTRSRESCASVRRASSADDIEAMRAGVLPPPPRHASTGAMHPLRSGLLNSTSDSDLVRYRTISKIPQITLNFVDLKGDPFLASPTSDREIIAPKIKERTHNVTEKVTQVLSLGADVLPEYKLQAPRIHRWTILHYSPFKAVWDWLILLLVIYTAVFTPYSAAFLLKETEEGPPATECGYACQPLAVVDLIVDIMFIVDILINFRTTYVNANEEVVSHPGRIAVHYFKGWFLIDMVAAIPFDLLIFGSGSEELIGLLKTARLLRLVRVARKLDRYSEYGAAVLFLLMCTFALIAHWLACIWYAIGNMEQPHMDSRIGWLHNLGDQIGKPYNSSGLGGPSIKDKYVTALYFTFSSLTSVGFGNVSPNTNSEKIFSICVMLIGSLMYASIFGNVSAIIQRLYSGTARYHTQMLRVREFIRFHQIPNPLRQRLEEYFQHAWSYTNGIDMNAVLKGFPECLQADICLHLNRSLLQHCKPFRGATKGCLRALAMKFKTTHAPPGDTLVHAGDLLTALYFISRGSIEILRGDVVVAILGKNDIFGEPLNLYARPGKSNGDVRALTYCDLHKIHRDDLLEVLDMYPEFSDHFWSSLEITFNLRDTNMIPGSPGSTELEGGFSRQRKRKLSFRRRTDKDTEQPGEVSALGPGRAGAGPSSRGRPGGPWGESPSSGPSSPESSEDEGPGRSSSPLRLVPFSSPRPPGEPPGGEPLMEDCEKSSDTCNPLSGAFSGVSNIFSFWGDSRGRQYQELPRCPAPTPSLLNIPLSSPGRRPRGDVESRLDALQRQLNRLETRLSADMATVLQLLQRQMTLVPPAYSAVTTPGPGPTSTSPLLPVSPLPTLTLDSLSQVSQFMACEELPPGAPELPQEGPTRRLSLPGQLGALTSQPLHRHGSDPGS

As to `COc1cc(N)c(Cl)cc1C(=O)NC1CCN(CCCOc2ccc(F)cc2)CC1(F)F` (single isomer, unassigned; (+)) [(+)-17, 4-amino-5-chloro-N-{3,3-difluoro-1-[3-(4-fluorophenoxy)-propyl]-piperidin-4-yl}-2-methoxybenzamide], the “% block of the hERG channel” value at hERG potassium channel (100 nM) is 14 (7) %; at hERG potassium channel (300 nM) it was 21 (10) %; at hERG potassium channel (3000 nM), 52 (11) %. Also, the IC50 – broadly, the midpoint of a concentration-inhibition curve – on 5HT2B was determined as 33 nM. The Kb (as a rule, the affinity of an antagonist, worked out from how it opposes an agonist) at 5HT2B worked out at 11 nM.
Regarding `COc1cc(N)c(Cl)cc1C(=O)NC1CCN(CCCOc2ccc(F)cc2)CC1(F)F` (racemic) [(±)-17, 4-amino-5-chloro-N-{3,3-difluoro-1-[3-(4-fluorophenoxy)-propyl]-piperidin-4-yl}-2-methoxybenzamide], the “% block of the hERG channel” value was 9 (7) % on hERG potassium channel (100 nM), 17 (15) % at hERG potassium channel (300 nM) and 58 (21) % at hERG potassium channel (3000 nM).
As to `COc1cc(N)c(Cl)cc1C(=O)N[C@H]1CCN(CCCOc2ccc(F)cc2)C[C@H]1F` (racemic) [(±)-12, cis-4-amino-5-chloro-N-{3-fluoro-1-[3-(4-fluorophenoxy)-propyl]-piperidin-4-yl}-2-methoxybenzamide], the “% block of the hERG channel” value is 40 (7) % at hERG potassium channel (100 nM), 73 (15) % at hERG potassium channel (300 nM) and 96 (21) % on hERG potassium channel (3000 nM). The IC50 on 5HT2B turned out to be 12 nM. In addition, the Kb on 5HT2B is 4.2 nM.
For `COc1cc(N)c(Cl)cc1C(=O)NC1CCN(CCCOc2ccc(F)cc2)CC1(F)F` (single isomer, unassigned) [Compound (−)-17, 4-amino-5-chloro-N-{3,3-difluoro-1-[3-(4-fluorophenoxy)-propyl]-piperidin-4-yl}-2-methoxybenzamide], the F in series [1] (p.o. 10 mg/kg vs i.v. 2.5 mg/kg) came to 19%. For the same compound, in series [1] (plasma, intravenous, 2.5 mg/kg, read-out: t½ (converted)), the half-life is 66 min. Besides, the clearance (usually the rate of elimination divided by the concentration) in series [1] (plasma, iv, i.v. 2.5 mg/kg (n=1)) was determined as 46 mL/min/kg. Besides, the Vd in series [1] (plasma, iv, i.v. 2.5 mg/kg (n=1), read-out: Vss) came out at 3.1 L/kg. In series [1] (plasma, po, p.o. 10 mg/kg), the AUC(0-t) (in general, the area under the concentration-time curve up to a stated or last time point) is 686 ± 254 ng·h/mL; the Cmax (usually the peak of the concentration-time curve) is 119 ± 37 ng/mL; the Tmax (in general, the time from dosing to the highest level) is 30 min. Further, the “% block of the hERG channel” value on hERG potassium channel (100 nM) is 3 (7) %. The “% block of the hERG channel” value at hERG potassium channel (300 nM) is reported as 11 (10) %. Moreover, the “% block of the hERG channel” value on hERG potassium channel (3000 nM) is 47 (11) %. For the same compound, on 5HT2B, the IC50 turned out to be 1.6 nM and the antagonist dissociation constant (Kb) was 0.55 nM.
With `COc1cc(N)c(Cl)cc1C(=O)N[C@@H]1CCN(CCCOc2ccc(F)cc2)C[C@H]1F` (racemic) [(±)-7, trans-4-amino-5-chloro-N-{3-fluoro-1-[3-(4-fluorophenoxy)-propyl]-piperidin-4-yl}-2-methoxybenzamide], the “% block of the hERG channel” value is 35 (7) % on hERG potassium channel (100 nM), 62 (15) % at hERG potassium channel (300 nM) and 94 (21) % at hERG potassium channel (3000 nM). The IC50 at 5HT2B amounted to 60 nM. Further, the Kb on 5HT2B turned out to be 20 nM.

The record behind these values is patent publication US9139523B2, “5-HT2B receptor antagonists” (Janssen Pharmaceutica, NV, priority 2010, dated 2015).
